Reference: publication PMC5515969, “Effects of 31 FDA approved small-molecule kinase inhibitors on isolated rat liver mitochondria” (Archives of Toxicology, 2016)
Like-named read-outs stand apart in the source and are kept apart here.

Key:
[1] = system: isolated rat liver mitochondria; test: Mitochondrial swelling (absorbance at 535 nm); assay type: biochemical; conditions: difference in signal between KI and DMSO treated samples at the end of experiments; for Swelling 5XCmax: key: 0 indicates that the drug had no effects (negative)
RCC II = biological target: T1, RCC II (Rattus norvegicus, UniProt P21913+Q641Z9+Q6PCT8+Q920L2); test: RCC II activity in submitochondrial particles; assay type: biochemical; design: key: activity relative to DMSO-treated controls (control set as 1 = 100%)
T1 construct: Submitochondrial particles were prepared by subjecting the intact mitochondria to three successive freeze–thaw cycles; from tissue; host or cells: rat liver mitochondria, used as submitochondrial particles
T1 sequence (Q920L2 35-656): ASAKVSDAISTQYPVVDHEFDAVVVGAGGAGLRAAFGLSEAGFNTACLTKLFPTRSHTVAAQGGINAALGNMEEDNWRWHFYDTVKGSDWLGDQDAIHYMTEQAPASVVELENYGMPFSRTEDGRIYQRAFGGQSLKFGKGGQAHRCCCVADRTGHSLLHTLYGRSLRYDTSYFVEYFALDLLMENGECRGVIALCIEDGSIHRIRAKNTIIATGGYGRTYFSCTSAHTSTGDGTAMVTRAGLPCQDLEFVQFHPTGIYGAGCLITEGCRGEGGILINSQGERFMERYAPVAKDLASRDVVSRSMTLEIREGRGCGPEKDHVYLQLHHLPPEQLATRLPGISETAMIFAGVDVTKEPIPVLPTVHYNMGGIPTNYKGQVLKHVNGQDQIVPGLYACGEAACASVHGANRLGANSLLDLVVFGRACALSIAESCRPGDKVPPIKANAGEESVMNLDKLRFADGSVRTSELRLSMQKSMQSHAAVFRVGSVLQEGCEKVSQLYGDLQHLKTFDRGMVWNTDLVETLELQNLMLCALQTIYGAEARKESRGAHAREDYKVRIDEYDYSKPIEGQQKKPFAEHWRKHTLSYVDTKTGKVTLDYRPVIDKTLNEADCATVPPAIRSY
T1 sequence (P21913 31-282): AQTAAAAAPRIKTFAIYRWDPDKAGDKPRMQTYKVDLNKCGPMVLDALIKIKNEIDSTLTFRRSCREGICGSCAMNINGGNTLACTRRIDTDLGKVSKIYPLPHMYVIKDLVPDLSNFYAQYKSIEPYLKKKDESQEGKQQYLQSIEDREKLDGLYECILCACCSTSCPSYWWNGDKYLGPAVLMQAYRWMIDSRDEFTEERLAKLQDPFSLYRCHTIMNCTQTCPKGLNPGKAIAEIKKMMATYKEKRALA
T1 sequence (Q641Z9 1-169): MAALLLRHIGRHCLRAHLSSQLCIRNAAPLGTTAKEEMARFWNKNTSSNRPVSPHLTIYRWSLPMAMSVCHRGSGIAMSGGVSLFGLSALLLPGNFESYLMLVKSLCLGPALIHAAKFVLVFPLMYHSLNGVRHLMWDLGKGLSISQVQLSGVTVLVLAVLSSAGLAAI
T1 sequence (Q6PCT8 57-159): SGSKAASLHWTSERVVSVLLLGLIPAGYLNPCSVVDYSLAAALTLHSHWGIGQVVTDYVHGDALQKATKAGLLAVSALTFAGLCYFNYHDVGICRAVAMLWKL
Method in brief: (§1)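 Kinase inhibitors were preincubated 15 min with submitochondrial particles (1 mg/ml) before complex activities were measured. RCC I was the rotenone-sensitive portion (activity without minus with rotenone). RCC I/V was read at 340 nm and RCC II at 600 nm every 1 min for 6 min. RCC III and IV were read at 550 nm every 10 s for 2 min. Activities are normalized to DMSO controls set as 1.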

[2] = system: isolated rat liver mitochondria; test: Mitochondrial ROS production (CM-H2DCFDA); conditions: DMSO treated samples set as 1
[3] = cited from earlier work
RCC I = RCC I activity in submitochondrial particles; assay type: biochemical, rat; design: key to RCC I at 10XCmax / RCC I at 100XCmax / RCC I at 50XCmax / RCC I at 30XCmax / RCC I at 20XCmax: activity relative to DMSO-treated controls (control set as 1 = 100%); conditions: 10XCmax
Method in brief: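 Abs 340 nm (I/V) or 600 nm (II), 1-min reads × 6 min; 550 nm (III, IV), 10-s reads × 2 min. RCC I = rotenone-free minus rotenone rate. DMSO control = 1.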

[4] = system: isolated rat liver mitochondria; conditions: positive control alamethicin treated samples
[5] = ref product labeling, cited from earlier work
[6] = system: isolated rat liver mitochondria; test: Mitochondrial oxygen consumption (glutamate/malate or succinate driven, state 4 and state 3); assay type: biochemical; conditions: DMSO treated samples set as 1; for State 3 respiration driven by succinate at 10XCmax: key: 0 indicates that the drug had no effects (negative); for State 3 respiration driven by succinate at 1XCmax: key: 0 indicates that the drug had no effects (negative)
Method in brief: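 Rat liver mitochondria (1 mg/ml protein) exposed 5 min to kinase inhibitors in 0.1% DMSO, then O2 consumption measured by Clark-type electrode with glutamate/malate or succinate (state 4), ADP added after 3 min (state 3). Rates normalized to 0.1% DMSO controls set to 1.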

RCC III = RCC III activity in submitochondrial particles; assay type: biochemical, rat; design: key to RCC III at 100XCmax: activity relative to DMSO-treated controls (control set as 1 = 100%); conditions: 100XCmax
Method in brief: as §1

RCC V = RCC V activity in submitochondrial particles; assay type: biochemical, rat; for RCC V at 5XCmax: key: 0 indicates that the drug had no effects (negative)
Method in brief: as §1

[7] = relative to DMSO treated samples

In the case of O=C(c1ccc(F)c(F)c1Nc1ccc(I)cc1F)N1CC(O)([C@@H]2CCCCN2)C1 [Cobimetinib], the “Swelling 1XCmax” value [1] is reported as 0, the “Swelling 2.5XCmax” value [1] is reported as 0 and the “Swelling 5XCmax” value [1] is reported as 0. The “Swelling 10XCmax” value [1] was 0, the “Swelling 20XCmax” value [1] was 0 and the “Swelling 30XCmax” value [1] was 0. For the same compound, the “Swelling 50XCmax” value [1] was 0, the “Swelling 100XCmax” value [1] was 0 and the “RCC II at 1.0XCmax” value (RCC II; DMSO treated samples set as 1) was 0. The “RCC II at 2.5XCmax” value (RCC II; DMSO treated samples set as 1) was 0, the “RCC II at 5XCmax” value (RCC II; DMSO treated samples set as 1) was 0 and the “RCC II at 10XCmax” value (RCC II; DMSO treated samples set as 1) was 0. The “RCC II at 20XCmax” value (RCC II; DMSO treated samples set as 1) was 0, the “RCC II at 30XCmax” value (RCC II; DMSO treated samples set as 1) was 0 and the “RCC II at 50XCmax” value (RCC II; DMSO treated samples set as 1) was 0. The “RCC II at 100XCmax” value (RCC II; DMSO treated samples set as 1) was 0, the “ROS measured by CM-H2DCFDA at 1XCmax” value [2] was 0 and the “ROS measured by CM-H2DCFDA at 2.5XCmax” value [2] was 0. For the same compound, the “ROS measured by CM-H2DCFDA at 5XCmax” value [2] was 0, the “ROS measured by CM-H2DCFDA at 10XCmax” value [2] was 0 and the “ROS measured by CM-H2DCFDA at 20XCmax” value [2] was 0. The “ROS measured by CM-H2DCFDA at 30XCmax” value [2] was 0, the “ROS measured by CM-H2DCFDA at 50XCmax” value [2] was 0 and the “ROS measured by CM-H2DCFDA at 100XCmax” value [2] was 0. The “DILI potential (based on labeling)” value ([3]; 1 DILI positive, 0 negative according to labeling, ref product labeling) was 1, the “Labeling for DILI” value ([3]; BBW: black box warning, W&P: Warnings and Precautions, ref product labeling) was “W&P: ALT↑” and the “labeling for DILI” value ([3]; W&P warnings and precautions, BBW black box warnings, ref FDA product labeling) was “W&P: ALT↑/monitoring”. For the same compound, the “DILI potential (based on labeling)” value ([3]; ref FDA product labeling) was 1, the “RCC I at 10XCmax” value (RCC I; DMSO treated samples set as 1) was 0 and the “Cytochrome c release 1XCmax” value [4] was 0. The “Cytochrome c release 2.5XCmax” value [4] was 0, the “Cytochrome c release 5XCmax” value [4] was 0 and the “Cytochrome c release 10XCmax” value [4] was 0. For the same compound, the “Cytochrome c release 20XCmax” value [4] was 0, the “Cytochrome c release 30XCmax” value [4] was 0 and the “Cytochrome c release 50XCmax” value [4] was 0. For the same compound, the “Cytochrome c release 100XCmax” value [4] was 0, the Cmax ([5]; read-out: Cmax at µM, human therapeutic maximal blood concentration) was 0.51 µM and the “State 3 respiration driven by glutamate/malate at 1XCmax” value [6] was 0. The “State 3 respiration driven by succinate at 1XCmax” value [6] was 0, the “State 4 respiration driven by glutamate/malate at 1XCmax” value [6] was 0 and the “State 4 respiration driven by succinate at 1XCmax” value [6] was 0. The “State 3 respiration driven by glutamate/malate at 2.5XCmax” value [6] was 0, the “State 3 respiration driven by succinate at 2.5XCmax” value [6] was 0 and the “State 4 respiration driven by glutamate/malate at 2.5XCmax” value [6] was 0. For the same compound, the “State 4 respiration driven by succinate at 2.5XCmax” value [6] was 0, the “State 3 respiration driven by glutamate/malate at 5XCmax” value [6] was 0 and the “State 3 respiration driven by succinate at 5XCmax” value [6] was 0. For the same compound, the “State 4 respiration driven by glutamate/malate at 5XCmax” value [6] was 0, the “State 4 respiration driven by succinate at 5XCmax” value [6] was 0 and the “State 3 respiration driven by glutamate/malate at 10XCmax” value [6] was 0. For the same compound, the “State 3 respiration driven by succinate at 10XCmax” value [6] was 0, the “State 4 respiration driven by glutamate/malate at 10XCmax” value [6] was 0 and the “State 4 respiration driven by succinate at 10XCmax” value [6] was 0. The “State 3 respiration driven by glutamate/malate at 20XCmax” value [6] was 0, the “State 3 respiration driven by succinate at 20XCmax” value [6] was 0 and the “State 4 respiration driven by glutamate/malate at 20XCmax” value [6] was 0. The “State 4 respiration driven by succinate at 20XCmax” value [6] was 0, the “State 3 respiration driven by glutamate/malate at 30XCmax” value [6] was 0 and the “State 3 respiration driven by succinate at 30XCmax” value [6] was 0. The “State 4 respiration driven by glutamate/malate at 30XCmax” value [6] was 0, the “State 4 respiration driven by succinate at 30XCmax” value [6] was 0 and the “State 3 respiration driven by glutamate/malate at 50XCmax” value [6] was 0. The “State 3 respiration driven by succinate at 50XCmax” value [6] was 0, the “State 4 respiration driven by glutamate/malate at 50XCmax” value [6] was 0 and the “State 4 respiration driven by succinate at 50XCmax” value [6] was 0. The “State 3 respiration driven by glutamate/malate at 100XCmax” value [6] was 0, the “State 3 respiration driven by succinate at 100XCmax” value [6] was 0 and the “State 4 respiration driven by glutamate/malate at 100XCmax” value [6] was 0. For the same compound, the “State 4 respiration driven by succinate at 100XCmax” value [6] was 0, the “RCC III at 100XCmax” value (RCC III) was 0 and the “RCC V at 5XCmax” value (RCC V; DMSO treated samples set as 1) was 0. The “RCC V at 50XCmax” value (RCC V; DMSO treated samples set as 1) was 0.
With Cc1nc(Nc2ncc(C(=O)Nc3c(C)cccc3Cl)s2)cc(N2CCN(CCO)CC2)n1 [dasatinib (free base)] the “Swelling 1XCmax” value [1] was 0, the “Swelling 2.5XCmax” value [1] was 0 and the “Swelling 5XCmax” value [1] was 0. For the same compound, the “Swelling 10XCmax” value [1] was 0, the “Swelling 20XCmax” value [1] was 0 and the “Swelling 30XCmax” value [1] was 0. For the same compound, the “Swelling 50XCmax” value [1] was 0, the “Swelling 100XCmax” value [1] was 0 and the “RCC II at 1.0XCmax” value (RCC II; [7]) was 0. For the same compound, the “RCC II at 2.5XCmax” value (RCC II; [7]) was 0, the “RCC II at 5XCmax” value (RCC II; [7]) was 0 and the “RCC II at 10XCmax” value (RCC II; [7]) was 0. The “RCC II at 20XCmax” value (RCC II; [7]) was 0, the “RCC II at 30XCmax” value (RCC II; [7]) was 0 and the “RCC II at 50XCmax” value (RCC II; [7]) was 0. The “RCC II at 100XCmax” value (RCC II; [7]) was 0, the “ROS measured by CM-H2DCFDA at 1XCmax” value [2] was 0 and the “ROS measured by CM-H2DCFDA at 2.5XCmax” value [2] was 0. For the same compound, the “ROS measured by CM-H2DCFDA at 5XCmax” value [2] was 0, the “ROS measured by CM-H2DCFDA at 10XCmax” value [2] was 0 and the “ROS measured by CM-H2DCFDA at 20XCmax” value [2] was 0. The “ROS measured by CM-H2DCFDA at 30XCmax” value [2] was 0, the “ROS measured by CM-H2DCFDA at 50XCmax” value [2] was 0 and the “ROS measured by CM-H2DCFDA at 100XCmax” value [2] was 0. The “DILI potential (based on labeling)” value ([3]; 1 = DILI positive, 0 = negative, ref product labeling) was 0, the “RCC I at 10XCmax” value (RCC I; [7]) was 0 and the “Cytochrome c release 1XCmax” value [4] was 0. The “Cytochrome c release 2.5XCmax” value [4] was 0, the “Cytochrome c release 5XCmax” value [4] was 0 and the “Cytochrome c release 10XCmax” value [4] was 0. For the same compound, the “Cytochrome c release 20XCmax” value [4] was 0, the “Cytochrome c release 30XCmax” value [4] was 0 and the “Cytochrome c release 50XCmax” value [4] was 0. The “Cytochrome c release 100XCmax” value [4] was 0, the Cmax ([5]; read-out: Cmax at µM, therapeutic maximal blood concentration) was 0.18 µM and the “Cmax” value ([5]; therapeutic maximal blood concentration) was 85.8 ng/mL. The “State 3 respiration driven by glutamate/malate at 1XCmax” value [6] was 0, the “State 3 respiration driven by succinate at 1XCmax” value [6] was 0 and the “State 4 respiration driven by glutamate/malate at 1XCmax” value [6] was 0. The “State 4 respiration driven by succinate at 1XCmax” value [6] was 0, the “State 3 respiration driven by glutamate/malate at 2.5XCmax” value [6] was 0 and the “State 3 respiration driven by succinate at 2.5XCmax” value [6] was 0. For the same compound, the “State 4 respiration driven by glutamate/malate at 2.5XCmax” value [6] was 0, the “State 4 respiration driven by succinate at 2.5XCmax” value [6] was 0 and the “State 3 respiration driven by glutamate/malate at 5XCmax” value [6] was 0. The “State 3 respiration driven by succinate at 5XCmax” value [6] was 0, the “State 4 respiration driven by glutamate/malate at 5XCmax” value [6] was 0 and the “State 4 respiration driven by succinate at 5XCmax” value [6] was 0. For the same compound, the “State 3 respiration driven by glutamate/malate at 10XCmax” value [6] was 0, the “State 3 respiration driven by succinate at 10XCmax” value [6] was 0 and the “State 4 respiration driven by glutamate/malate at 10XCmax” value [6] was 0. For the same compound, the “State 4 respiration driven by succinate at 10XCmax” value [6] was 0, the “State 3 respiration driven by glutamate/malate at 20XCmax” value [6] was 0 and the “State 3 respiration driven by succinate at 20XCmax” value [6] was 0. For the same compound, the “State 4 respiration driven by glutamate/malate at 20XCmax” value [6] was 0, the “State 4 respiration driven by succinate at 20XCmax” value [6] was 0 and the “State 3 respiration driven by glutamate/malate at 30XCmax” value [6] was 0. The “State 3 respiration driven by succinate at 30XCmax” value [6] was 0, the “State 4 respiration driven by glutamate/malate at 30XCmax” value [6] was 0 and the “State 4 respiration driven by succinate at 30XCmax” value [6] was 0. For the same compound, the “State 3 respiration driven by glutamate/malate at 50XCmax” value [6] was 0, the “State 3 respiration driven by succinate at 50XCmax” value [6] was 0 and the “State 4 respiration driven by glutamate/malate at 50XCmax” value [6] was 0. For the same compound, the “State 4 respiration driven by succinate at 50XCmax” value [6] was 0, the “State 3 respiration driven by glutamate/malate at 100XCmax” value [6] was 0 and the “State 3 respiration driven by succinate at 100XCmax” value [6] was 0. The “State 4 respiration driven by glutamate/malate at 100XCmax” value [6] was 0, the “State 4 respiration driven by succinate at 100XCmax” value [6] was 0 and the “RCC III at 100XCmax” value (RCC III; [7]) was 0. The “RCC V at 5XCmax” value (RCC V; [7]) was 0 and the “RCC V at 50XCmax” value (RCC V; [7]) was 0.
